Experimental data: patent publication US20040102622A1, “Modulation of hepatocyte growth factor receptor expression” (Isis Pharmaceuticals Inc., priority 2002, published 2004)

test system: human hepatocyte growth factor receptor mRNA

Row | Substance | inhibition of human hepatocyte growth factor receptor expression
1 | ISIS 209536: 2′-MOE gapmer, phosphorothioate backbone, sequence cctcccatactagagaagta (antisense CCTCCCATACTAGAGAAGTA; all phosphorothioate, sugars by position and methylation of C not given here; 2'-MOE gapmer) | at least 35%
2 | ISIS 155110: 2′-MOE gapmer, phosphorothioate backbone, sequence tcgggacactaactgaattc (antisense TCGGGACACTAACTGAATTC; all phosphorothioate, sugars by position and methylation of C not given here; 2'-MOE gapmer) | at least 35%
3 | ISIS 209533: 2′-MOE gapmer, phosphorothioate backbone, sequence caccactggcaaagcaaaat (antisense CACCACTGGCAAAGCAAAAT; all phosphorothioate, sugars by position and methylation of C not given here; 2'-MOE gapmer) | at least 35%
4 | ISIS 209547: 2′-MOE gapmer, phosphorothioate backbone, sequence tcctgcttcaatttcccata (antisense TCCTGCTTCAATTTCCCATA; all phosphorothioate, sugars by position and methylation of C not given here; 2'-MOE gapmer) | at least 35%
5 | ISIS 209528: 2′-MOE gapmer, phosphorothioate backbone, sequence ttgggaaaaccttgtagatt (antisense TTGGGAAAACCTTGTAGATT; all phosphorothioate, sugars by position and methylation of C not given here; 2'-MOE gapmer) | at least 35%
6 | ISIS 209526: 2′-MOE gapmer, phosphorothioate backbone, sequence ttgatagggaatgcacacat (antisense TTGATAGGGAATGCACACAT; all phosphorothioate, sugars by position and methylation of C not given here; 2'-MOE gapmer) | at least 35%
7 | ISIS 155127: 2′-MOE gapmer, phosphorothioate backbone, sequence gatctggttgaactattact (antisense GATCTGGTTGAACTATTACT; all phosphorothioate, sugars by position and methylation of C not given here; 2'-MOE gapmer) | at least 35%
8 | ISIS 209542: 2′-MOE gapmer, phosphorothioate backbone, sequence cttgcttccactaaaaatga (antisense CTTGCTTCCACTAAAAATGA; all phosphorothioate, sugars by position and methylation of C not given here; 2'-MOE gapmer) | at least 35%
9 | ISIS 155104: 2′-MOE gapmer, phosphorothioate backbone, sequence atgcaatggatgatctggga (antisense ATGCAATGGATGATCTGGGA; all phosphorothioate, sugars by position and methylation of C not given here; 2'-MOE gapmer) | at least 35%
10 | ISIS 155119: 2′-MOE gapmer, phosphorothioate backbone, sequence aagtatattaaacacttcct (antisense AAGTATATTAAACACTTCCT; all phosphorothioate, sugars by position and methylation of C not given here; 2'-MOE gapmer) | at least 35%
